Source: ChEMBL document CHEMBL5696441 (Nat Chem Biol, 2011)

Legend:
[1] = target: Lymphokine-activated killer T-cell-originated protein kinase (Homo sapiens) (UniProt Q96KB5); experiment: Inhibition of human PBK assessed as residual activity at 1 uM using histon H1 as substrate in presence of 33P-ATP by ProQinase assay relative to control
[2] = target: Tyrosine-protein kinase Mer (Homo sapiens) (UniProt Q12866); experiment: Inhibition of human MERTK assessed as residual activity at 1 uM using polyEY as substrate in presence of 33P-ATP by ProQinase assay relative to control
[3] = target: Tyrosine-protein kinase ABL1 (Homo sapiens) (UniProt P00519); experiment: Inhibition of human ABL1 assessed as residual activity at 1 uM using poly(Ala,Glu,Lys,Tyr)6:2:5:1 as substrate in presence of 33P-ATP by ProQinase assay relative to control
[4] = target: Serine/threonine-protein kinase TBK1 (Homo sapiens) (UniProt Q9UHD2); experiment: Inhibition of TBK1 (unknown origin) assessed as remaining activity at 1 uM by Kinome scan method relative to control
[5] = target: Dual specificity tyrosine-phosphorylation-regulated kinase 1A (Homo sapiens) (UniProt Q13627); experiment: Inhibition of human DYRK1A assessed as residual activity at 1 uM using RBER-CHKtide as substrate in presence of 33P-ATP by ProQinase assay relative to control
[6] = target: PAS domain-containing serine/threonine-protein kinase (Homo sapiens) (UniProt Q96RG2); experiment: Inhibition of human PASK assessed as residual activity at 1 uM using RBER-CHKtide as substrate in presence of 33P-ATP by ProQinase assay relative to control
[7] = target: Serine/threonine-protein kinase PLK2 (Homo sapiens) (UniProt Q9NYY3); experiment: Inhibition of human SNK assessed as residual activity at 1 uM using RBER-GSK3(14-27) as substrate in presence of 33P-ATP by ProQinase assay relative to control
[8] = target: Death-associated protein kinase 3 (Homo sapiens) (UniProt O43293); experiment: Inhibition of DAPK3 (unknown origin) assessed as remaining activity at 1 uM by Kinome scan method relative to control
[9] = target: T1, Serine/threonine-protein kinase BRSK1 (Homo sapiens) (UniProt Q8TDC3); experiment: Inhibition of human BRSK1 assessed as residual activity at 1 uM using RBER-CHKtide as substrate in presence of 33P-ATP by ProQinase assay relative to control
T1 sequence (whole entry): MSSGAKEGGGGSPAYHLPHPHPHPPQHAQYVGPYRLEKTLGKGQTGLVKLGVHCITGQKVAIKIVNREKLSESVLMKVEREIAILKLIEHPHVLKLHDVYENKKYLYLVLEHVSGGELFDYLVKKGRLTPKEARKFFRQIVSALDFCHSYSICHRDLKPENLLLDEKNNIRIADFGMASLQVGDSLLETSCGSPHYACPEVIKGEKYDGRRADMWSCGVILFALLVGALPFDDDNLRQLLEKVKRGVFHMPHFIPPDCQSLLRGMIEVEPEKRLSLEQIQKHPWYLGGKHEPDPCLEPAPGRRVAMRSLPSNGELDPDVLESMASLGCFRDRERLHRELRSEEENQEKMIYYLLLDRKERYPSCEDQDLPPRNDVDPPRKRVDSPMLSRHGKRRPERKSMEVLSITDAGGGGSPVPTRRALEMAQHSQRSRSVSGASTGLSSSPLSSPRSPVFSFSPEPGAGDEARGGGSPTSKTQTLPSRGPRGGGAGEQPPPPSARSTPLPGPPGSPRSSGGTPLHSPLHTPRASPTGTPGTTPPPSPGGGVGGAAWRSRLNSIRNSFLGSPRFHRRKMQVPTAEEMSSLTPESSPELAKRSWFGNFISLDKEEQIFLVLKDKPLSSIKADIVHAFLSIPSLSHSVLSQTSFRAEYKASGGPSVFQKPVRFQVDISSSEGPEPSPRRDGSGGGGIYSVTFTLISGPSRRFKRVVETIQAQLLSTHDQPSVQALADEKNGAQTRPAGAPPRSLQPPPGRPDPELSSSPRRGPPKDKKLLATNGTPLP

[10] = target: Calcium/calmodulin-dependent protein kinase type 1 (Homo sapiens) (UniProt Q14012); experiment: Inhibition of CAMK1 (unknown origin) assessed as remaining activity at 1 uM by Kinome scan method relative to control
[11] = target: Casein kinase I isoform epsilon (Homo sapiens) (UniProt P49674); experiment: Inhibition of CSNK1E (unknown origin) assessed as remaining activity at 1 uM by Kinome scan method relative to control
[12] = target: CDK4/Cyclin D3 (Homo sapiens) (UniProt P11802+P30281); experiment: Inhibition of human CDK4/CycD3 assessed as residual activity at 1 uM using RBER-CHKtide as substrate in presence of 33P-ATP by ProQinase assay relative to control; format: protein-complex assay
[13] = target: RAC-alpha serine/threonine-protein kinase (Homo sapiens) (UniProt P31749); experiment: Inhibition of human AKT1 assessed as residual activity at 1 uM using RBER-GSK3(14-27) as substrate in presence of 33P-ATP by ProQinase assay relative to control
[14] = target: Rhodopsin kinase GRK7 (Homo sapiens) (UniProt Q8WTQ7); experiment: Inhibition of human GRK7 assessed as residual activity at 1 uM using casein as substrate in presence of 33P-ATP by ProQinase assay relative to control
[15] = target: Dual specificity protein kinase CLK1 (Homo sapiens) (UniProt P49759); experiment: Inhibition of CLK1 (unknown origin) assessed as remaining activity at 1 uM by Kinome scan method relative to control
[16] = target: Mitogen-activated protein kinase 1 (Homo sapiens) (UniProt P28482); experiment: Inhibition of human ERK2 assessed as residual activity at 1 uM using RBER-CHKtide as substrate in presence of 33P-ATP by ProQinase assay relative to control
[17] = test system: Receptor-type tyrosine-protein kinase FLT3 (Homo sapiens), P36888 [N841I]; experiment: Inhibition of FLT3 N841I mutant (unknown origin) assessed as remaining activity at 1 uM by Kinome scan method relative to control
[18] = test system: Tyrosine-protein kinase ABL1 (Homo sapiens), P00519 [Q252H]; experiment: Inhibition of ABL1 Q252H mutant (unknown origin) assessed as remaining activity at 1 uM by Kinome scan method relative to control
[19] = target: Tyrosine-protein kinase Fgr (Homo sapiens) (UniProt P09769); experiment: Inhibition of FGR (unknown origin) assessed as remaining activity at 1 uM by Kinome scan method relative to control
[20] = target: Serine/threonine-protein kinase PRP4 homolog (Homo sapiens) (UniProt Q13523); experiment: Inhibition of PRP4 (unknown origin) assessed as remaining activity at 1 uM by Kinome scan method relative to control
[21] = target: CDK9/Cyclin K (Homo sapiens) (UniProt P50750+O75909); experiment: Inhibition of human CDK9/CycK assessed as residual activity at 1 uM using RBER-CHKtide as substrate in presence of 33P-ATP by ProQinase assay relative to control; format: protein-complex assay

Chain of Casein kinase I isoform epsilon (Homo sapiens) (P49674 whole entry, looked up, canonical isoform): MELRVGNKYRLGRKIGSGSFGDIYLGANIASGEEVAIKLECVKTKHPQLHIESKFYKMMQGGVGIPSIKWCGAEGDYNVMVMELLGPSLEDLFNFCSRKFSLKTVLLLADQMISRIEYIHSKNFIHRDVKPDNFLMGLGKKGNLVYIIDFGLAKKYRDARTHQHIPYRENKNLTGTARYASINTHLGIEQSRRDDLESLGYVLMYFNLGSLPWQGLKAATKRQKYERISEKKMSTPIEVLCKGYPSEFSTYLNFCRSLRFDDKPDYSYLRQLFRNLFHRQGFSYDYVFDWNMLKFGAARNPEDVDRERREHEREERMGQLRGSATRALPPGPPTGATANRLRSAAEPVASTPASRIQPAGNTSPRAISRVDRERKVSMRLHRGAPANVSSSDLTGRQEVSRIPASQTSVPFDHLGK
Chain of RAC-alpha serine/threonine-protein kinase (Homo sapiens) (P31749 whole entry): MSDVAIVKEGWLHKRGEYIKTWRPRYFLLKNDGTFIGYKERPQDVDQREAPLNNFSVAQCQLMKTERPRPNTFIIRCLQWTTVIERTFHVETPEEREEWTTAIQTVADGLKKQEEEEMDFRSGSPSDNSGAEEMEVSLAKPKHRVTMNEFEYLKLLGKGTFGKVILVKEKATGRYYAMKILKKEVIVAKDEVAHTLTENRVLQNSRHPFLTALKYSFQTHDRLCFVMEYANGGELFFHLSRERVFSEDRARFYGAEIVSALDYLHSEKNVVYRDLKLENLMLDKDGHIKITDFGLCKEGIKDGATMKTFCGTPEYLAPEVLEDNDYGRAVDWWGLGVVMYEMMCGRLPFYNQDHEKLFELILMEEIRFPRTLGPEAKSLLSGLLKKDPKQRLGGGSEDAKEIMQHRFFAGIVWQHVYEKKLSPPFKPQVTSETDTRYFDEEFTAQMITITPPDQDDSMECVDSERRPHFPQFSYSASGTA
Chain of Rhodopsin kinase GRK7 (Homo sapiens) (Q8WTQ7 whole entry): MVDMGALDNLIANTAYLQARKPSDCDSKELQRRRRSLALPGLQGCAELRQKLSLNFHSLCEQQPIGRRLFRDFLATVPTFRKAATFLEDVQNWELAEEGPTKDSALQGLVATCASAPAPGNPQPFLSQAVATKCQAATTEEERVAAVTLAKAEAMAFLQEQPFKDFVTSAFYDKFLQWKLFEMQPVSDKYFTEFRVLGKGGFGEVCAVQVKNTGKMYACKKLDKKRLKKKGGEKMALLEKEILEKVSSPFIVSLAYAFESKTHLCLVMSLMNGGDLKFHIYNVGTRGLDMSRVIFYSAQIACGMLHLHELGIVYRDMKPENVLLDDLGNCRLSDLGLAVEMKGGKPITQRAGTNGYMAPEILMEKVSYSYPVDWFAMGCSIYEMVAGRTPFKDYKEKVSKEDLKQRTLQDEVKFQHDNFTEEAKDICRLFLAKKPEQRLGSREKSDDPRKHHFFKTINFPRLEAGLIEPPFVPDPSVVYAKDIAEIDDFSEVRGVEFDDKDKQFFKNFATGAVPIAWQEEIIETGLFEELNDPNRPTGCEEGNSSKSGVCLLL
Chain of Tyrosine-protein kinase Fgr (Homo sapiens) (P09769 2-529 limits assumed): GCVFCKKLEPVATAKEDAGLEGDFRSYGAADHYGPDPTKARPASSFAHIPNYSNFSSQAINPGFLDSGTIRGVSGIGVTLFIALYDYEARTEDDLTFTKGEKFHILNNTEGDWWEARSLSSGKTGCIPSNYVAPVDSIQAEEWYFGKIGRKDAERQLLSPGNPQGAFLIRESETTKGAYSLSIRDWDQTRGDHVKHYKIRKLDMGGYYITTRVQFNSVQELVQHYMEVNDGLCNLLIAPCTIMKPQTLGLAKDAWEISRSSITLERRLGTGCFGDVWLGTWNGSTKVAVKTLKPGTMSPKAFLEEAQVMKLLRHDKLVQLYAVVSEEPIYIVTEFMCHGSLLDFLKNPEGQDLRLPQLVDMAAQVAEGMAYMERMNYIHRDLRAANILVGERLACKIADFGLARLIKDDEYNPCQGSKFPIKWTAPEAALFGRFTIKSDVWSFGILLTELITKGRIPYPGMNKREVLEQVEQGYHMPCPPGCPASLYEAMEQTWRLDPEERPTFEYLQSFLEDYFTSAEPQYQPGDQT
Chain of Dual specificity protein kinase CLK1 (Homo sapiens) (P49759 whole entry, looked up): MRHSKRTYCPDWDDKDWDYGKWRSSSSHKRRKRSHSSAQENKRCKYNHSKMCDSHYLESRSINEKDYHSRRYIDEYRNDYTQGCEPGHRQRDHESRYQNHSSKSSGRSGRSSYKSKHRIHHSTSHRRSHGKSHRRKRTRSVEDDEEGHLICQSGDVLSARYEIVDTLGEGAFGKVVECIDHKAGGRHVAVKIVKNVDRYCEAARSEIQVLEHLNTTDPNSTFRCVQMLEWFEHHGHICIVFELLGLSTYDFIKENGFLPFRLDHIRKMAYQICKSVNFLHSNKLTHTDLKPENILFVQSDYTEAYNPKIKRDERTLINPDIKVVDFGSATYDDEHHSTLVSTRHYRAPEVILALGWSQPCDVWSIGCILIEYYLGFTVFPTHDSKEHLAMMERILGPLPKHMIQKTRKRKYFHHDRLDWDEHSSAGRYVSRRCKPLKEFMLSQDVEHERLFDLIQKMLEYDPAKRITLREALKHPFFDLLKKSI
Chain of Death-associated protein kinase 3 (Homo sapiens) (O43293 whole entry, looked up): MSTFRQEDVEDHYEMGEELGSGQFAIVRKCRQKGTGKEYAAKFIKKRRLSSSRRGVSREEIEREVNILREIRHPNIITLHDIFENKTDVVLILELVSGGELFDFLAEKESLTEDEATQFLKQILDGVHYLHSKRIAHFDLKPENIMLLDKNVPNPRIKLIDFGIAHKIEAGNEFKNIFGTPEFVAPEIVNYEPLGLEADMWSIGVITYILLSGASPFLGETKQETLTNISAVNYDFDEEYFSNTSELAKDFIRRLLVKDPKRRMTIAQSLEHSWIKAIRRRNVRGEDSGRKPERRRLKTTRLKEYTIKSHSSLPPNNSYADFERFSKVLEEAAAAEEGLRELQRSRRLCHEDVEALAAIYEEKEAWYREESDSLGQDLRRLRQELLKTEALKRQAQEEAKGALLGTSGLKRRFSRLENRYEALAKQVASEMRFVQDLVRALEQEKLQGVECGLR
Chain of Serine/threonine-protein kinase PLK2 (Homo sapiens) (Q9NYY3 whole entry, looked up): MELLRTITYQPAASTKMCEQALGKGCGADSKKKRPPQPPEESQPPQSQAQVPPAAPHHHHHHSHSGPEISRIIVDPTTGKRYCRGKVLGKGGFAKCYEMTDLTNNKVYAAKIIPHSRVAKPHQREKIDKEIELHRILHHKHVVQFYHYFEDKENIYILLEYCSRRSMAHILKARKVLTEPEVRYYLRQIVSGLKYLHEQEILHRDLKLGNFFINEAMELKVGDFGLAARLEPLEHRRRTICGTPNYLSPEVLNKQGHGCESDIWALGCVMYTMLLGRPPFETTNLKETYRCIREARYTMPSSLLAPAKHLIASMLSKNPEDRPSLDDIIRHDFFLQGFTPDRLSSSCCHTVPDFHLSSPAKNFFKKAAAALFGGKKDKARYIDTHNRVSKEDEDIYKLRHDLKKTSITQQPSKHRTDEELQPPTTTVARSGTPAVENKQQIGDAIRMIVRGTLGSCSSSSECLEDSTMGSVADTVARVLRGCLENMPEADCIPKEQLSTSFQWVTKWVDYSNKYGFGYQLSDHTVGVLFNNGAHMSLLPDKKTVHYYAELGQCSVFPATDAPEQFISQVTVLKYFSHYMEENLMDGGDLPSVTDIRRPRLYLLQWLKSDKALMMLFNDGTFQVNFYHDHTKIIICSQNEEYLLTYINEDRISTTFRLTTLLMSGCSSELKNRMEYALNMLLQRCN
Chain of Serine/threonine-protein kinase PRP4 homolog (Homo sapiens) (Q13523 whole entry): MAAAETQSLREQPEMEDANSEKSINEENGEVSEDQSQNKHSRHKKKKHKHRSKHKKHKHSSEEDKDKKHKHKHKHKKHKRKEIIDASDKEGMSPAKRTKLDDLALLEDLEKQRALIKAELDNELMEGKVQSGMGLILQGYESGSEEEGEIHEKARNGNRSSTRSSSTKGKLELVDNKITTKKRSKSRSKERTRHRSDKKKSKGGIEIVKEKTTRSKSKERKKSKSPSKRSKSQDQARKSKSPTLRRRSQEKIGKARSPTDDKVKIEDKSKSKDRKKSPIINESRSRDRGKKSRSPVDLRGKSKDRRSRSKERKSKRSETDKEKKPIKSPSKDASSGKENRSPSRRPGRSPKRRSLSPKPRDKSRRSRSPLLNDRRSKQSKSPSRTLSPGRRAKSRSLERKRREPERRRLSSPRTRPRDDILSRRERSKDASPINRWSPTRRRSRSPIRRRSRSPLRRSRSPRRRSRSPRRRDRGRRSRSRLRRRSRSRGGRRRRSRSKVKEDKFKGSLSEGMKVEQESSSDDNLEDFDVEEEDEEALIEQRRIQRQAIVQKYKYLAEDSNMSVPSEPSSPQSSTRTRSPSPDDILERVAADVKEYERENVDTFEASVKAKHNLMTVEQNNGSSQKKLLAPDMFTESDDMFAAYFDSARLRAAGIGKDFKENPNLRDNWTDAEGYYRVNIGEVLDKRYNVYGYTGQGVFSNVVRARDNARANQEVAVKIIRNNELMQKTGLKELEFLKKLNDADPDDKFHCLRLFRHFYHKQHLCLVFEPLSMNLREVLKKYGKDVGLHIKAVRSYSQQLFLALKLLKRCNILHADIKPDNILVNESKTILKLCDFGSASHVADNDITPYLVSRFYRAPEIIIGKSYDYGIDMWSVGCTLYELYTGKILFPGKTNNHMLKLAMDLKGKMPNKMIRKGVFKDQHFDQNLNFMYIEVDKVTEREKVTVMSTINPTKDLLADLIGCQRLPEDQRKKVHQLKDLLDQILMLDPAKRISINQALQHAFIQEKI
Chain of Lymphokine-activated killer T-cell-originated protein kinase (Homo sapiens) (Q96KB5 whole entry): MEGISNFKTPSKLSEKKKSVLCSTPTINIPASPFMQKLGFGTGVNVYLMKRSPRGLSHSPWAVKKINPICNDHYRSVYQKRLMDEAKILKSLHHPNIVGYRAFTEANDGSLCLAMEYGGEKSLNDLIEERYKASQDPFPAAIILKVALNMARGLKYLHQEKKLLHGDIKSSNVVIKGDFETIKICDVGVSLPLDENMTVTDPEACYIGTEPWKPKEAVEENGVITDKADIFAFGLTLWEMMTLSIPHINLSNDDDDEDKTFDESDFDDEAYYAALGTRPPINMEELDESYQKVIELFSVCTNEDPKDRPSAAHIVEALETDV

Compound: O=C1c2ccc(Nc3ccc(F)cc3F)cc2CCc2ccc(OC[C@H](O)CO)cc21 [Skepinone-L]
- Activity [1]: 113%
- Activity [2]: 98%
- Activity [3]: 95%
- Activity [4]: 100%
- Activity [5]: 96%
- Activity [6]: 88%
- Activity [7]: 103%
- Activity [8]: 100%
- Activity [9]: 94%
- Activity [10]: 100%
- Activity [11]: 100%
- Activity [12]: 98%
- Activity [13]: 102%
- Activity [14]: 107%
- Activity [15]: 99%
- Activity [16]: 83%
- Activity [17]: 96%
- Activity [18]: 93%
- Activity [19]: 100%
- Activity [20]: 100%
- Activity [21]: 92%
